# Data published in patent publication US11147272B2, “Pyridone compounds and agricultural and horticultural fungicides comprising the same as active ingredients” (MITSUI CHEMICALS AGRO, INC., priority 2017, dated 2021).
# How the values were obtained:
# [1] = tested on: Blumeria graminis f. sp. hordei; assay: Test Example D: Powdery mildew on barley; conditions: Powdery mildew on barley; control value class
# Puccinia recondita = assay: Test Example E: Brown rust on wheat; type: in vivo; conditions: Brown rust on wheat; control value class
# [2] = tested on: Colletotrichum orbiculare; assay: Test Example H: Anthracnose on cucumber; conditions: Anthracnose on cucumber; 250 ppm spray, 6 to 10 days after inoculation
# Phytophthora infestans = assay: whole plant or invertebrate; type: in vivo; conditions: Late blight on tomato; control value class
# Alternaia brassicicola = assay: Test Example C: Alternaria sooty spot on cabbage; type: in vivo; conditions: Alternaria sooty spot on cabbage; control value class
# Excerpt: Seeds of a test plant (cabbage variety: Shikidori) were planted and cultivated until the cotyledons extended.
# <Control Value> Control value=100{1−(n/3)}
# Botrytis cinerea = assay: Test Example B: Gray mold on tomato; conditions: Gray mold on tomato; control value class
# Plasmopara viticola = assay: Test Example G: Downy mildew on vine; conditions: Downy mildew on vine; 250 ppm spray, 7 to 10 days after inoculation
# Magnaporthe grisea = assay: whole plant or invertebrate; type: in vivo; conditions: Blast on rice; control value class
SMILES,Test D control value [1],Test E control value (Puccinia recondita),Test H control value [2],Test F control value (Phytophthora infestans),Test C control value (Alternaia brassicicola),Test B control value (Botrytis cinerea),Test G control value (Plasmopara viticola),Test A control value (Magnaporthe grisea)
CCOC(C)(c1cc(Cl)c(=O)n(CC)c1-c1c(F)cc(OC)cc1F)C(C)C (stereo not shown) [compound 241],H (more than 50% control value),H (more than 50% control value),H (more than 50% control value),L (50% or less control value),H (more than 50% control value),H (more than 50% control value),L (50% or less control value),H (more than 50% control value)
CCCOC(C)(c1cc(Cl)c(=O)n(CC)c1-c1c(F)cc(OC)cc1F)C(C)C (stereo not shown) [compound 242],L (50% or less control value),L (50% or less control value),L (50% or less control value),L (50% or less control value),H (more than 50% control value),L (50% or less control value),L (50% or less control value),L (50% or less control value)
C=C(c1cc(Cl)c(=O)n(CC)c1-c1c(F)cc(F)cc1F)C(C)C [compound 243],H (more than 50% control value),H (more than 50% control value),H (more than 50% control value),L (50% or less control value),H (more than 50% control value),H (more than 50% control value),L (50% or less control value),H (more than 50% control value)
CCn1c(-c2c(F)cc(F)cc2F)c(C(C)(O)C2CCCC2)cc(Cl)c1=O (stereo not shown) [compound 244],H (more than 50% control value),H (more than 50% control value),H (more than 50% control value),L (50% or less control value),H (more than 50% control value),H (more than 50% control value),L (50% or less control value),H (more than 50% control value)
CCn1c(-c2c(F)cc(F)cc2F)c(C(C)(OC)C2CCCC2)cc(Cl)c1=O (stereo not shown) [compound 245],L (50% or less control value),L (50% or less control value),L (50% or less control value),L (50% or less control value),H (more than 50% control value),L (50% or less control value),L (50% or less control value),L (50% or less control value)
CCn1c(-c2ccc(OC)cc2)c(C(O)C(C)C)cc(Cl)c1=O (stereo not shown) [compound 246],L (50% or less control value),H (more than 50% control value),L (50% or less control value),L (50% or less control value),H (more than 50% control value),L (50% or less control value),L (50% or less control value),L (50% or less control value)
CCOC(C)(c1cc(Cl)c(=O)n(CC)c1-c1ccc(OC)cc1)C(C)C (stereo not shown) [compound 247],H (more than 50% control value),L (50% or less control value),L (50% or less control value),L (50% or less control value),L (50% or less control value),H (more than 50% control value),L (50% or less control value),L (50% or less control value)
CCCOC(C)(c1cc(Cl)c(=O)n(CC)c1-c1ccc(OC)cc1)C(C)C (stereo not shown) [compound 248],L (50% or less control value),L (50% or less control value),L (50% or less control value),L (50% or less control value),L (50% or less control value),L (50% or less control value),L (50% or less control value),H (more than 50% control value)
CCn1c(-c2ccc(OC)cc2)c(C(C)(F)C(C)C)cc(Cl)c1=O (stereo not shown) [compound 249],L (50% or less control value),H (more than 50% control value),H (more than 50% control value),L (50% or less control value),H (more than 50% control value),H (more than 50% control value),L (50% or less control value),L (50% or less control value)
CCn1c(-c2ccc(C#N)cc2)c(C(C)(OC)C(C)C)cc(Cl)c1=O (stereo not shown) [compound 250],L (50% or less control value),H (more than 50% control value),L (50% or less control value),L (50% or less control value),L (50% or less control value),H (more than 50% control value),L (50% or less control value),L (50% or less control value)
CCOC(C)(c1cc(Cl)c(=O)n(CC)c1-c1ccc(C#N)cc1)C(C)C (stereo not shown) [compound 251],L (50% or less control value),L (50% or less control value),L (50% or less control value),L (50% or less control value),H (more than 50% control value),L (50% or less control value),L (50% or less control value),L (50% or less control value)
CCCOC(C)(c1cc(Cl)c(=O)n(CC)c1-c1ccc(C#N)cc1)C(C)C (stereo not shown) [compound 252],L (50% or less control value),L (50% or less control value),L (50% or less control value),L (50% or less control value),L (50% or less control value),L (50% or less control value),L (50% or less control value),H (more than 50% control value)
CCn1c(-c2ccc(C#N)cc2)c(C(C)(F)C(C)C)cc(Cl)c1=O (stereo not shown) [compound 253],L (50% or less control value),L (50% or less control value),L (50% or less control value),L (50% or less control value),H (more than 50% control value),H (more than 50% control value),L (50% or less control value),L (50% or less control value)
CCn1c(-c2ccc(O)cc2Cl)c(CC(C)C)cc(Cl)c1=O [compound 254],L (50% or less control value),H (more than 50% control value),H (more than 50% control value),H (more than 50% control value),H (more than 50% control value),H (more than 50% control value),L (50% or less control value),L (50% or less control value)
CCn1c(-c2ccccc2F)c(CC(C)C)cc(Cl)c1=O [compound 255],H (more than 50% control value),H (more than 50% control value),H (more than 50% control value),L (50% or less control value),H (more than 50% control value),H (more than 50% control value),L (50% or less control value),H (more than 50% control value)
CCOC(C)(c1cc(Cl)c(=O)n(CC)c1-c1c(F)cc(F)cc1F)C1CCCC1 (stereo not shown) [compound 256],H (more than 50% control value),H (more than 50% control value),L (50% or less control value),L (50% or less control value),L (50% or less control value),L (50% or less control value),H (more than 50% control value),L (50% or less control value)
CCCOC(C)(c1cc(Cl)c(=O)n(CC)c1-c1c(F)cc(F)cc1F)C1CCCC1 (stereo not shown) [compound 257],L (50% or less control value),L (50% or less control value),H (more than 50% control value),L (50% or less control value),H (more than 50% control value),L (50% or less control value),L (50% or less control value),L (50% or less control value)
